Assay results as given in patent publication US11738099B2, “Molecular probes and methods of use” (CASE WESTERN RESERVE UNIVERSITY, priority 2014, dated 2023).
Where a SMILES comes first, the peptide text is derived from it. The star is where a group is joined. X1 = O=C(O)CN1CCN(CC(=O)O)CCN(CC(O)Cn2cc(CCCC(=O)*)nn2)CCN(CC(=O)O)CC1; PEG2 = NCCOCCOCCC(=O)O

Assays:
[1] = tested on: PC3 tumors
Description: (§1) The following imaging parameters were used for T1 mapping methods: flip angle 10°; echo time 2.09 ms; slice thickness 1 mm; number of average 1; field of view 3×3 cm^2; matrix size 128×128. For each slice, 50 images that covered 5 s of the saturation recovery curve were acquired within an interval of 100 ms. Proton density (Mn) images were acquired with repetition time (TR) of 2 s. Cartesian MRSLL images were also acquired as a validation of spiral MRSLL method. Center 64 k-space lines were acquired in Cartesian method as described previously. Other acquisition parameters were the same as spiral MRSLL.
(§2) Quantitative T1 maps of the tumors were acquired before and at 30 min after the injection of ZD2-Gd(HP-DO3A) and ProHance. […] At the end of the T1 map acquisitions, the mice were sacrificed and the Gd concentration in their tumors was measured by inductively coupled plasma optical emission spectrometry (ICP-OES).

[2] = tested on: LNCaP tumors; conditions: 30 min after injection; before injection 3.21±0.12 s
Description: as §1, §2

[3] = Gd biodistribution (ICP-OES); conditions: 1 week after injection
Description: (§4) PC3 tumor-bearing athymic nude mice (sixteen mice) were randomly divided into 4 groups (four mice each group). […] The animals were sacrificed at 2 and 7 days after injection. The blood and tissue samples, including brain, femur, heart, lung, liver, muscle, spleen, and kidney, were collected and weighed. The tissue samples were then cut into small pieces and mixed with ultra-pure nitric acid (1.0 mL, 70%, EMD, Gibbstown, N.J.). The tissue samples were liquefied within 2 weeks and the solution was transferred to a centrifuge tube and centrifuged at 14,000 rpm for 15 min. The supernatant (0.2 mL) was diluted with 9.8 mL deionized water and further centrifuged at 14,000 rpm for 15 min. The Gd(III) concentration in the final supernatant was measured by ICP-OES. […] The Gd content in different organ/tissues was calculated as the percentage of injected dose per gram of organ/tissues (% Dose/g).

[4] = Relaxivity at 1.5T in water, 37° C.; format: physicochemical
Description: Relaxivity is an important parameter for an MR contrast agent. It reflects how the relaxation rate of the surrounding water proton changes as a function of concentration, and it is directly associated with the agent's contrast enhancing capability during imaging. The relaxivity of the 4 contrast agents was tested at 37° C. in water and compared to Gd(HP-DO3A), Gd-DOTA and ZD2-Gd(HP-DO3A) (FIG. 26). […] Compared to Gd(HP-DO3A), Gd-DOTA, the size increase of the targeted contrast agents due to the peptides and PEG spacer could result in an increase of τR,^[42, 43] thus leading to higher relaxivities.

[5] = tested on: PC3 prostate tumor xenografts; test: In vivo T1-weighted MRI at 7T, PC3 tumors; parameters: species or system mouse
Description: (§3) All MRI experiments were performed on a horizontal 7T Bruker scanner (Bruker Biospin Co., Billerica, Mass.). Imaging experiments were performed when the tumor size reached 5-8 mm in diameter. ZD2-Gd(HP-DO3A) was administered intravenously at the dose of 0.1 mmol/kg after acquiring pre-contrast images. Post-contrast images were obtained at 10 min interval up to 30 min. The axial slices of mouse at the tumor location were acquired using T1-weighted spin echo sequence with the following parameters: field of view (FOV): 3 cm; slice thickness: 1.2 mm; interslice distance: 1.2 mm; TR: 500 ms, TE: 8.1 ms; flip angle: 90°; average: 2; matrix size: 128×128. Contrast-to-noise ratio (CNR) at each time point was calculated by subtraction of the average signal intensity in the tumor and muscle, divided by the standard deviation of image noise. ProHance® (gadoteridol) was used as a control in the imaging experiments.

[6] = tested on: LNCaP prostate tumor xenografts; test: In vivo T1-weighted MRI at 7T, LNCaP tumors; parameters: species or system mouse
Description: as §3

[7] = r1 relaxivity by T1 mapping in PC3 tumor lysates; format: physicochemical
[8] = Relaxivity measurement at 3T; format: physicochemical
Description: The design of the EDB-FN targeted MRI agent was based on a modular system that forms small molecular contrast agent in conjugation with l-ZD2. Compound 1 in FIG. 7A was prepared by adding a short PEG linker, followed by reacting with 5-hexynoic acid, resulting in an alkyne group for conjugation through click chemistry. The final product from reaction of compound 1 and 2 was purified with HPLC and characterized with Maldi-Tof spectrum.

[9] = mouse, in vivo
Description: as §4

[10] = In vitro complexation stability in PBS with Cu2+, Ca2+, Zn2+; format: physicochemical
Description: FIGS. 16(A-B) illustrate in vitro complexation stability and transmetallation analysis of ZD2-Gd(HP-DO3A). A) relative Gd content of ZD2-Gd(HP-DO3A) assayed during 200-min incubation of the agent in phosphate buffer saline (PBS) with and without Cu^2+, Ca^2+, or Zn^2+ ions. […] B) In vitro transmetallation analysis of MultiHance, OmniScan, ProHance (abbreviated as Pro.), and ZD2-Gd(HP-DO3A) (abbreviated as ZD2) in mouse senim.

[11] = In vitro transmetallation in serum; format: in vitro ADME, human; conditions: blood plasma containing Cu2+, Ca2+, Zn2+; vs MultiHance and OmniScan
Description: […] The plasma mixtures were transferred to CF-10 centrifugal filters (molecular weight cut-off 10 KDa) and centrifuged at 4,000 rpm and 25° C. for 150 min. During centrifugation, the solution in the upper reservoir was agitated using a pipette every 20 min for the plasma mixtures. The content of metal ions in both the upper reservoir and the filtrates was determined by ICP-OES after appropriate dilution. The degree of transmetallation of the contrast agents with Zn(II) or Cu(II) ions in the plasma was evaluated using the percentage of Zn(II) or Cu(II) ions filtered through the membrane, calculated as Zn(Cu) %=(concentration of Zn(II) or Cu(II) in the filtrates)/(total Zn(II) or Cu(II) concentration before centrifugal filtration)×100. Human serum was used a control.

[12] = Relaxivity measurement at 7T in PBS; format: physicochemical
Description: To accurately capture T1 maps, a fast T1 mapping method was developed. This accelerated multi-slice T1-mapping method combines a saturation recovery look-locker sequence and spiral k-space sampling^40. The NMR tubes filled with 3.12-50 μM ZD2-Gd(HP-DO3A) were positioned in a mouse coil and scanned with T1-weighted spin echo sequence, cartesian T1-mapping sequence, and spiral T1-mapping sequence. Axial images were acquired. CNR values from the T1-weighted sequence were calculated from signal from the samples subtracting surrounding water signal, and divided by noise. T1 values of the samples were reconstructed by fitting signal change during the acquisition time to the adapted T1-relaxation curve.

[13] = tested on: PC-3 human prostate cancer xenograft; test: MRI of PC-3 xenograft (Example 2); format: in vivo, mouse; conditions: 0.1 mmol-Gd/kg intravenous
Source text: The same contrast agent also works for prostate cancer imaging. We then tested the effectiveness of targeting EDB-FN with the contrast agent for prostate cancer MRI in male nude mice bearing primary PC-3 human prostate cancer xenograft.

[14] = 0.1 mmol/kg i.v., up to 30 min, 7T

For CC(C)[C@H](NC(=O)[C@@H](NC(=O)CCOCCOCCNC(=O)CCCc1cn(CC(O)CN2CCN(CC(=O)O)CCN(CC(=O)O)CCN(CC(=O)O)CC2)nn1)[C@@H](C)O)C(=O)N[C@@H](CCCNC(=N)N)C(=O)N[C@H](C(=O)N[C@@H](CO)C(=O)N[C@@H](C)C(=O)N[C@@H](CC(=O)O)C(=O)O)[C@@H](C)O (stereo partly shown) [ZD2-Gd(HP-DO3A)] ({X1-PEG2}-TVRTSAD-OH), the “tumor T1” value ([1]; 30 min after injection, before injection 2.75±0.05 s) was 1.81 ± 0.07 s, the “change in relaxation rate (ΔR1)” value ([1]; among all cases (PC3/LNCaP, ZD2-Gd(HP-DO3A)/ProHance)) was “highest relaxation rate change” and the “Gd concentration in PC3 tumors by ICP-OES” value ([1]; mouse, in vivo) was “significantly higher concentration”. For the same compound, the “tumor T1” value [2] was 2.54 ± 0.13 s, the “tissue retention of Gd” value [3] was “same low tissue retention as ProHance” and the r1 [4] was 5.4 mM⁻¹ s⁻¹. For the same compound, the “signal enhancement in PC3 tumors” value [5, 14] was “Strong signal enhancement”, the “signal enhancement and CNR in PC3 tumors with co-injection of free ZD2 peptide” value ([5]; 0.1 mmol/kg with 0.5 mmol/kg free ZD2 peptide) was “significantly reduced” and the “CNR in PC3 tumors” value ([5]; 10-30 min post-injection) was 12-25. The “increase of CNR in PC3 tumors” value ([5]; 10 min after injection) was “over two-fold increase”, the “increase of CNR in PC3 tumors” value ([5]; 30 min) was “over five-fold increase” and the “CNR in PC3 tumors” value ([5]; 30 min (peak), n=5, SEM) was 23.7±1.68. The “contrast enhancement in other organs and normal tissues” value ([5]; mouse, in vivo) was “did not produce significant contrast enhancement”, the “signal enhancement in LNCaP tumors” value [6, 14] was “significantly lower signal enhancement” and the “CNR in LNCaP tumors” value ([6]; 10-30 min post-injection) was 6-9. The “increase of CNR in LNCaP tumors” value ([6]; during the first 30 min after injection) was 10-60%, the “CNR in LNCaP tumors relative to PC3 tumors” value ([6]; first 30 min) was “more than two times lower” and the r1 relaxivity [7] was 4.12 mM⁻¹ s⁻¹. For the same compound, the “relaxivities (T1 and T2)” value [8] was “relatively high relaxivities”, the “Gd(III) concentration in most of the organs, including the brain, heart, and skin” value [9] was “below the detection limit” and the “relative Gd content” value ([10]; 200-min incubation in PBS with and without Cu2+, Ca2+, or Zn2+) was “No decrease in Gd content”. For the same compound, the “transmetallation with endogenous metal ions” value ([10]; 24 hours of incubation with Cu2+, Ca2+, Zn2+ in PBS (pH=7.4)) was “no evident transmetallation”, the stability against transmetallation [11] was “same high stability as ProHance” and the T1 relaxivity [12] was 3.7 mM⁻¹ s⁻¹. For the same compound, the tumor contrast enhancement [13] was “robust tumor enhancement for at least 30 min”.
